{"source": "patent US20060135906A1", "about": "“Iontophoretic device and method for administering immune response-enhancing agents and compositions” (priority 2004, published 2006)", "test_system": "57BL/6 mice", "assay": "Antibody titers (IgG1, IgG2) in mice given Mtb72F vaccine plus MPL adjuvant", "conditions": "for antibody titer of IgG1 / antibody titer of IgG2: Mtb72F 10 μg injected, compared with no MPL administered", "key": {"[1]": {"conditions": "day 43, MPL administered iontophoretically (transcutaneous)"}, "[2]": {"conditions": "day 43, MPL by intracutaneous injection (MPL-AF or MPL-SE, 20 μg)"}}}
{"substance": "monophosphoryl lipid A [MPL]", "values": [{"measurement": "immune response-enhancing effects", "setting": "MPL administered iontophoretically, compared with intracutaneous injection", "result": "significant immune response-enhancing effects equivalent to those obtained by intracutaneous injection"}, {"measurement": "antibody titer results, iontophoretic delivery compared with intracutaneous injection", "setting": "day 43, IgG1 and IgG2", "result": "nearly identical"}, {"measurement": "antibody titer of IgG1", "setting": "[1]", "result": "significantly higher"}, {"measurement": "antibody titer of IgG2", "setting": "[1]", "result": "significantly higher"}, {"measurement": "antibody titer of IgG1", "setting": "[2]", "result": "significantly higher"}, {"measurement": "antibody titer of IgG2", "setting": "[2]", "result": "significantly higher"}]}
